# Results: ChEMBL document CHEMBL1201862, “PubChem BioAssay data set” (2004)
# Where a name gives a salt, the structure may show the parent alone. The source made the active and inactive calls.
# Legend:
# Vero = assay: cells; type: functional; settings: Chlorocebus sabaeus
# [1] = molecular target: Delta-type opioid receptor (Homo sapiens, UniProt P41143); assay: Counterscreen for agonists of heterodimerization of the mu 1 (OPRM1) and delta 1 (OPRD1) opioid receptors: Luminescence-based cell-based high throughput dose response assay to identify agonists of OPRD1 homodimerization. [Related pubchem assays (depositor defined):AID504326, AID504355, AID504692, AID504904, AID504905]; type: functional
# [2] = molecular target: T1, Short transient receptor potential channel 4 (Mus musculus, UniProt Q9QUQ5); assay: mouse TRPC4 channel activators, dose response, cell-based, HEK293 TRPC4/mu-opioid, Fluo-4 calcium (AID 434937); type: functional
# T1 sequence (Q9QUQ5 whole entry): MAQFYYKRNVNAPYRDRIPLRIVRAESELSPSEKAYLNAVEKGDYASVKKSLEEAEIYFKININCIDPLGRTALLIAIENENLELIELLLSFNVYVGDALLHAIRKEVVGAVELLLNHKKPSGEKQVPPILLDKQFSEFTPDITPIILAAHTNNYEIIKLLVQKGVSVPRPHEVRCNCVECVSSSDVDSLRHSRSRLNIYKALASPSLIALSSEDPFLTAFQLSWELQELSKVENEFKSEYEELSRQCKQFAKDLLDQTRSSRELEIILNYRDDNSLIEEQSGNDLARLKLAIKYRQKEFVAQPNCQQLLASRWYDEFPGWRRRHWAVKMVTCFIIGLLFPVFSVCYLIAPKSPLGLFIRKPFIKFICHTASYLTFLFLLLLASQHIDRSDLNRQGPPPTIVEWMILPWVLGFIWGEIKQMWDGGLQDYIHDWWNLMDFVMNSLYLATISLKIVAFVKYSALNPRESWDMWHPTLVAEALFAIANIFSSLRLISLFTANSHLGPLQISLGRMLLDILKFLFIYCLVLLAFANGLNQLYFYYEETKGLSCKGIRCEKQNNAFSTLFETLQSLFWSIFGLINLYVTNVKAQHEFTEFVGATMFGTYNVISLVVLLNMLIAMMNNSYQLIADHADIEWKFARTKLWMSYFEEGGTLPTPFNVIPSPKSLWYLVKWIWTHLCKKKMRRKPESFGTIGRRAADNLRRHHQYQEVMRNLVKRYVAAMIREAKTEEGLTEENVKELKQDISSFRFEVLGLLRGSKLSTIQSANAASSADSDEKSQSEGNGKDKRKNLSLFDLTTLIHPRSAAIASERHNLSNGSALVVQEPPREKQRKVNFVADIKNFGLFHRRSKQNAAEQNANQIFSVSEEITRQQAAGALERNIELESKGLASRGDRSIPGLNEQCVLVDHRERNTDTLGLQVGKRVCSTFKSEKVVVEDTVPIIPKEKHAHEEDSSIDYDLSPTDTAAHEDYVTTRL
# [3] = molecular target: 5-hydroxytryptamine receptor 5A (Homo sapiens, UniProt P47898); assay: Counterscreen for agonists of OPRM1-OPRD1 heterodimerization: luminescence-based cell-based high throughput dose response assay to identify agonists of 5-hydroxytryptamine (serotonin) 5A receptor (HTR5A). [Related pubchem assays (depositor defined):AID504326, AID504355, AID504692, AID504904, AID504905]; type: functional
# Mu-type opioid receptor = Mu-type opioid receptor (Homo sapiens, UniProt P35372); assay: Counterscreen for agonists of heterodimerization of the mu 1 (OPRM1) and delta 1 (OPRD1) opioid receptors: Luminescence-based cell-based high throughput dose response assay to identify agonists of OPRM1 homodimerization.; type: functional;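 note: U2OS cells expressing OPRM1 and beta-arrestin as split beta-galactosidase partners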
# [4] = molecular target: T2, Carboxy-terminal domain RNA polymerase II polypeptide A small phosphatase 1 (Homo sapiens, UniProt Q9GZU7); assay: inhibitors of CTDSP1, concentration-response testing, biochemical assay, absorbance-based, actives from ultra-high-throughput screening (AID 540297); type: functional
# T2 sequence (Q9GZU7 whole entry): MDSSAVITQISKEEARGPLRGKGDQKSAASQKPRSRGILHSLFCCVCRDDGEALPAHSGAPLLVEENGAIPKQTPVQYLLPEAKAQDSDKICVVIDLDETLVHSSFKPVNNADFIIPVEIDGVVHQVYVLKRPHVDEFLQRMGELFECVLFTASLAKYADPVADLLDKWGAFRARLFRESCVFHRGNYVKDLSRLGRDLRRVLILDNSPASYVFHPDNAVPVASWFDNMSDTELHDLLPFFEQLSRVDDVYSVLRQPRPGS
# [5] = inhibitors of clade B AD8 Env fusion, dose response, cell-based, cherry-pick (AID 652062); type: functional;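 note: luciferase signal from cell-cell fusion driven by HIV-1 clade B AD8 Env; potency is for inhibitors of fusion seen as a drop in luminescence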
# [6] = inhibitors of HIV Env-driven cell fusion, dose response, cherry-pick (AID 652057); type: functional, cell-based
# [7] = off-target signal loss in HeLa-CEM21 co-culture – HeLa F-luc CTL cells, cherry-picked, counter-screen for HIV-1 Env fusion inhibitor project, dose response (AID 652040); type: functional, cell-based;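 note: potency for signal decrease marking cytotoxic or nonspecific inhibition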
# [8] = molecular target: T3, Replicative DNA helicase DnaB (Mycobacterium tuberculosis, UniProt P9WMR3); assay: DnaB intein splicing inhibitors, dose response, biochemical, cell-free fluorescence (AID 449749); type: functional
# T3 sequence (P9WMR3 whole entry): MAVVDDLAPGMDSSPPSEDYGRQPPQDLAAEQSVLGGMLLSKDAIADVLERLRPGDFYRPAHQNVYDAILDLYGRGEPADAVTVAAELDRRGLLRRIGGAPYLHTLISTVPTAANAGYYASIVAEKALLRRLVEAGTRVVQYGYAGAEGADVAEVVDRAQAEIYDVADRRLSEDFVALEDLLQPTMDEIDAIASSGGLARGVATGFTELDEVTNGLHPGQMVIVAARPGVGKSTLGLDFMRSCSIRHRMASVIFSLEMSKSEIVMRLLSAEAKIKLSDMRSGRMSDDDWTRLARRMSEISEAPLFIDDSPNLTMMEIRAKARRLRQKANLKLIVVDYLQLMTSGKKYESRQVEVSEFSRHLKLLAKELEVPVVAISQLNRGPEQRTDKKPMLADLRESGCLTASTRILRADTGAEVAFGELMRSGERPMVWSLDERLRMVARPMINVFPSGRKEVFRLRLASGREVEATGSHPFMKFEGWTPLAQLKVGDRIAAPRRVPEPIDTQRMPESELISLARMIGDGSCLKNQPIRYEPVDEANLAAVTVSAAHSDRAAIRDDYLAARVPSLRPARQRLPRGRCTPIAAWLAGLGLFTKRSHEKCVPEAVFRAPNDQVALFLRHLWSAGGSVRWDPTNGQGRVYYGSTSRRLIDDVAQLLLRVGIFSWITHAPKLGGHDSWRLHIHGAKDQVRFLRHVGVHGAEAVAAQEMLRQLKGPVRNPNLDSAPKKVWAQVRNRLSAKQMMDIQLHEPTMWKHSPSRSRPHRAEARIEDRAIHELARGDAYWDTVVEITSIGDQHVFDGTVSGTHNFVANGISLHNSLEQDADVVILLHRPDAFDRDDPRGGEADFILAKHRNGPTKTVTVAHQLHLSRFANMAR
# cells [9] = type: functional, cell-based
# cells [10] = type: functional, cell-based; remark: listed apart in the source
# Protein RecA = molecular target: T4, Protein RecA (Mycobacterium tuberculosis, UniProt P9WHJ3); assay: Fluorescence Cell-Free Homogeneous Dose Retest to Identify Inhibitors of RecA-Intein Splicing Activity. [Related pubchem assays (depositor defined):AID2097, AID2223, AID489010, AID492950]; type: functional
# T4 sequence (P9WHJ3 whole entry): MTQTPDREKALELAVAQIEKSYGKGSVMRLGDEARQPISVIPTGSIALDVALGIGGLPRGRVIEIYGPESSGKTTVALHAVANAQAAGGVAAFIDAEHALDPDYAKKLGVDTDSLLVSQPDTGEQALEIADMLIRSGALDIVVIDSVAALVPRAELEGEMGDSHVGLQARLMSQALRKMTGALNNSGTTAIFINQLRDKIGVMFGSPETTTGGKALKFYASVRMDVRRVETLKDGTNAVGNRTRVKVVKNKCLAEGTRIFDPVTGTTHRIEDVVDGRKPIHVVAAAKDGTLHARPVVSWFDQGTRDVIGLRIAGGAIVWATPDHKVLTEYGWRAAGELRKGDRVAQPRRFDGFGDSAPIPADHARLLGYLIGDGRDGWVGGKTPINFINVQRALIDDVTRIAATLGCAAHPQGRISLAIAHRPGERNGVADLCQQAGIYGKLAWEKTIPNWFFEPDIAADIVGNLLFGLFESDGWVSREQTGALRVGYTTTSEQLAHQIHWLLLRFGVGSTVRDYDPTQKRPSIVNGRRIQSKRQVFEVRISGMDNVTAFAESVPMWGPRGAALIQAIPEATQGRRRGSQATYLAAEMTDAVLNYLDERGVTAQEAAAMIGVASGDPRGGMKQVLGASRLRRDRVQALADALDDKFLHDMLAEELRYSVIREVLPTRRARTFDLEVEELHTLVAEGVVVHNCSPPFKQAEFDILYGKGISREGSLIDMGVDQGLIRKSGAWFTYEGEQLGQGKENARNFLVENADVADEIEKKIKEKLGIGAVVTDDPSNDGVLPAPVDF
# [11] = Luminescence Cell-Based Dose Retest to Confirm Inhibitors of Cancer Stem Cells. [Related pubchem assays (depositor defined):AID2717, AID2721]; type: functional; settings: Homo sapiens
# [12] = molecular target: ATP-dependent molecular chaperone HSP82 (Candida albicans (strain WO-1) (Yeast), UniProt C4YTQ8); assay: loss of DOC-induced GRE-beta-galactosidase reporter signal, dose response, Hsp90 inhibitor project, S. cerevisiae, luminescence (AID 2400); type: functional, cell-based;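 note: beta-galactosidase luminescence from glucocorticoid response element reporter as proxy for Hsp90 function; inhibitor potency where signal loss means Hsp90 inhibition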
# [13] = NIH-3T3 fibroblast cytotoxicity, dose response, cytotoxicity control, cell-based, fluorescence, Alamar Blue, secondary assay (AID 2327); type: functional;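 note: NIH-3T3 mouse fibroblasts cultured with fluconazole at 8 µg/mL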
# [14] = C. albicans growth with fluconazole, confirmation, fluorescence, retest (AID 2467); type: functional, cell-based
# [15] = molecular target: T5, Serine/threonine-protein phosphatase (Candida dubliniensis (strain CD36 / CBS 7987 / NCPF 3949 / NRRLY-17841) (Yeast), UniProt B9W6M3); assay: calcineurin pathway inhibitors in yeast reporter, dose response, S. cerevisiae, CDRE-lacZ, luminescence, secondary (AID 2388); type: functional, cell-based;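 note: yeast reporter cells carrying a calcineurin-responsive lacZ construct stimulated with calcium chloride; luminescent beta-galactosidase reporter signal in whole cells rather than isolated phosphatase activity; potency for inhibition where a drop in reporter signal means calcineurin blockade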
# T5 sequence (B9W6M3 whole entry): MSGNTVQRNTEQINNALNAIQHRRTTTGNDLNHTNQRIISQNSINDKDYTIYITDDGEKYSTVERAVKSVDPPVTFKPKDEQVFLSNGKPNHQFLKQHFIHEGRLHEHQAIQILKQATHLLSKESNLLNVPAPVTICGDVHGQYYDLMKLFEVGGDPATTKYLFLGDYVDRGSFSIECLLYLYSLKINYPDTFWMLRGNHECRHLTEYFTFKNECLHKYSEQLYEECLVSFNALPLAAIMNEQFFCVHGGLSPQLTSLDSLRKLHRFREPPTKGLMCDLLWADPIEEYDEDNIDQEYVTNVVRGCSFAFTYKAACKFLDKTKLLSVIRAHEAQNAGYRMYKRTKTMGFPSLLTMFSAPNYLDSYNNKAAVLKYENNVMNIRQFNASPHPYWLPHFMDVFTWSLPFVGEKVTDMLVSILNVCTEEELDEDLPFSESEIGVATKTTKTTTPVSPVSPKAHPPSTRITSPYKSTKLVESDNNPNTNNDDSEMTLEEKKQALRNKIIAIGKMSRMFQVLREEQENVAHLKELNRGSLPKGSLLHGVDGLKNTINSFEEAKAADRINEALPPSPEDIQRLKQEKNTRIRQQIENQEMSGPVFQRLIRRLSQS
# [16] = molecular target: T1, Short transient receptor potential channel 4; assay: mouse TRPC4 channel inhibitors, dose response, cell-based, HEK293 TRPC4/mu-opioid, Fluo-4 calcium (AID 434942); type: functional;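 note: potency of inhibitors blocking the TRPC4 calcium response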
# [17] = cytotoxicity toward NIH3T3 fibroblasts, dose response, counter-screen, cell-based, ATP luminescence, mouse fibroblasts (AID 2010); type: functional;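 note: cells exposed to compound for about 90 hours before reading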
# cells [18] = type: functional
# [19] = THP-1 cell cytotoxicity, dose response, cytotoxicity control for non-replicating M. tuberculosis project (AID 489025); type: functional
# [20] = inhibitors of intracellular T. cruzi replication, confirmation, NIH3T3 host cells, beta-gal luminescence (AID 2044); type: functional, cell-based;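 note: intracellular parasites grown in NIH/3T3 mouse fibroblasts as host cells; luminescent beta-galactosidase reporter signal from transgenic T. cruzi replicating inside host cells; inhibitors lower the luminescence signal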
# Chain of 5-hydroxytryptamine receptor 5A (P47898 whole entry): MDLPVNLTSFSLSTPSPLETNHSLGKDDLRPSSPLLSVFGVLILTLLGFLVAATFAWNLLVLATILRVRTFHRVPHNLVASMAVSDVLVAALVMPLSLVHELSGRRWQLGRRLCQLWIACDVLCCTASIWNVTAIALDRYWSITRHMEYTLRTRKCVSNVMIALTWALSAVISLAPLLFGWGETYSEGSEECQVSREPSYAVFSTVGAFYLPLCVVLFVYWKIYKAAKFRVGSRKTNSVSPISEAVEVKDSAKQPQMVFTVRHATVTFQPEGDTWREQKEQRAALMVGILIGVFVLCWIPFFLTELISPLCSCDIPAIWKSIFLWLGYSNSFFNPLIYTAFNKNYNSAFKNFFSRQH
# Chain of Delta-type opioid receptor (P41143 whole entry): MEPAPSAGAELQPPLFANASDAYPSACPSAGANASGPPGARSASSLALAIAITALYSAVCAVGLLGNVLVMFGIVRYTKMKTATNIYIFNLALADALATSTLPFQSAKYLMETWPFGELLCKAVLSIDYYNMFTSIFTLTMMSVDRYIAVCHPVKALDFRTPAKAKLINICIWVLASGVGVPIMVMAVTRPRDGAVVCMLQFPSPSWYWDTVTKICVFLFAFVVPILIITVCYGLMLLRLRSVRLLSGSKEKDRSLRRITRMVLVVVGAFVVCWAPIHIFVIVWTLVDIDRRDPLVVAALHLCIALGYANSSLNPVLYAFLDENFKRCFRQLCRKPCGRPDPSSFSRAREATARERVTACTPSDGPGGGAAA
# Chain of Mu-type opioid receptor (P35372 whole entry, the tested form may be a part): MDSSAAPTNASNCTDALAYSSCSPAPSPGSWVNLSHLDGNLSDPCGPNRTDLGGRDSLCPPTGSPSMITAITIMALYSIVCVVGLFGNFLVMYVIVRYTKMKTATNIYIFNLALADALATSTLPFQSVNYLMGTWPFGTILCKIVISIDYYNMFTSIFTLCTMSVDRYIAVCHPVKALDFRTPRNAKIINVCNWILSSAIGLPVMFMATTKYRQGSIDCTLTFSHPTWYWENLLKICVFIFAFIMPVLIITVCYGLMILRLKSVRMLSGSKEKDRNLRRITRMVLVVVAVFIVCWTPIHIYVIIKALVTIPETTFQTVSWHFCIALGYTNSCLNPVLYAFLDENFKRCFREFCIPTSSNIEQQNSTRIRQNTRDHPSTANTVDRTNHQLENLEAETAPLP
# Chain of ATP-dependent molecular chaperone HSP82 (C4YTQ8 whole entry): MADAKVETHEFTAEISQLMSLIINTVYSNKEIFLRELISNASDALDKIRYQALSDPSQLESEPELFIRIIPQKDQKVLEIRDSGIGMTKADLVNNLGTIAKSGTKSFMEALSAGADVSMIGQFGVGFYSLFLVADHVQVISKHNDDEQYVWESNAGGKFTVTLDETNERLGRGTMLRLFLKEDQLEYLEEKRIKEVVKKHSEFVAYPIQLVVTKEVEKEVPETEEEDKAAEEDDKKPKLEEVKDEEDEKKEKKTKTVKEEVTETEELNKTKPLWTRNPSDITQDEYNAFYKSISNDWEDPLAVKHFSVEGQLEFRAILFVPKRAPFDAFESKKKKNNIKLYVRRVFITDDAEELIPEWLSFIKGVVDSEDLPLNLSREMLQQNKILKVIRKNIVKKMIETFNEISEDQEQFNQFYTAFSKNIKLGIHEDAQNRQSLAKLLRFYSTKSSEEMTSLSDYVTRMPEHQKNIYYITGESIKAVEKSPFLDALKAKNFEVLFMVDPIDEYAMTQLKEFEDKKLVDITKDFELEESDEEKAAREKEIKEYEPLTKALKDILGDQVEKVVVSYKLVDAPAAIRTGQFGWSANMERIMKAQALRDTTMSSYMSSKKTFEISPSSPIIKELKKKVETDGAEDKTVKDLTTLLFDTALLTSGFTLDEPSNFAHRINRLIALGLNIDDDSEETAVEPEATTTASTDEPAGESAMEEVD
compound,measurement,setting,value
COc1cccc(/C=C2/SC(=S)N(CCC(=O)N3CCOCC3)C2=O)c1,CC50,Vero,20.1 µM (active)
Cc1ccccc1[N+]1=C2SCCN2C(O)(c2ccccc2)C1 (stereo not given),EC50,[1],> 92.5 µM (inactive)
same,EC50,[2],0.335 µM (active)
same,EC50,[3],> 92.5 µM (inactive)
same,EC50,Mu-type opioid receptor,18.7 µM (inactive)
O=c1c2ccc(Cl)cc2[nH]c(=S)n1Cc1cccnc1,EC50,[1],43.2 µM (inactive)
same,EC50,[3],> 92.5 µM (inactive)
same,EC50,Mu-type opioid receptor,65.6 µM (inactive)
CSc1cccc(N2CC(C(=O)Nc3cccc(S(=O)(=O)N4CCCC4)c3)CC2=O)c1 (stereo not given),IC50,[4],6.81 µM (active)
same,AC50,[5],11.7 µM (active)
same,AC50,[6],17.8 µM (active)
same,AC50,[7],> 70 µM (inactive)
CC(=O)Nc1ccc(S(=O)(=O)NCCC(=O)OCC(=O)N2CCN(C(=O)c3ccco3)CC2)cc1,IC50,[4],10.3 µM (active)
Cc1ccc(-c2nnc(Sc3nc4ccccc4o3)c3ccccc23)cc1,AC50,[8],2.39 µM (active)
same,EC50,cells [9],> 350 µM (not active)
same,CC50,Vero,> 25 µM (active)
same,EC50,cells [10],> 350 µM (not active)
same,EC50,Protein RecA,0.396 µM (active)
same,AC50,[11],6.09 µM (active)
Cc1ccc(C(=O)Nc2cccc(-c3cn4ccccc4n3)c2)cc1,EC50,[12],> 160 µM (inactive)
same,EC50,[13],> 150 µM (inactive)
same,EC50,[14],0.628 µM (active)
same,EC50,[15],> 180 µM (inactive)
CN(C)C(CNC(=O)c1ccc(C(F)(F)F)cc1)c1ccco1 (stereo not given),EC50,[1],91 µM (inactive)
same,EC50,[2],0.267 µM (active)
same,EC50,[3],> 92.4 µM (inactive)
same,EC50,Mu-type opioid receptor,> 92.4 µM (inactive)
same,EC50,[16],0.0533 µM (active)
C/C(=N/Nc1ccnc2cc(Cl)ccc12)c1ccc(N)cc1,EC50,[1],29.5 µM (inactive)
same,EC50,[17],> 60 µM (not active)
same,EC50,[3],> 92.4 µM (inactive)
same,IC50,cells [18],29 µM (active)
same,EC50,Mu-type opioid receptor,54.7 µM (inactive)
same,CC50,[19],23.4 µM (active)
same,EC50,[20],3.31 µM (active)
COc1ccc(C(=O)N/N=C/c2ccc(OC(=O)c3cccc4ccccc34)c([N+](=O)[O-])c2)cc1,IC50,[4],2.4 µM (active)
O=C(O)c1cc(-c2ccc(/C=C3\NC(=O)N(c4ccccc4)C3=O)o2)ccc1Cl,IC50,[4],5.09 µM (active)
c1ccc(C2(N3CCCCC3)CCCCC2)cc1 [PHENCYCLIDINE HYDROCHLORIDE],EC50,[1],33.6 µM (inactive)
same,EC50,[3],> 92.5 µM (inactive)
same,EC50,Mu-type opioid receptor,6.29 µM (active)
